US20240043880A1, “IMPROVED METHODS FOR PRODUCTION, RECOVERY AND SECRETION OF HYDROPHOBIC COMPOUNDS IN A FERMENTATION” (BioPhero ApS, priority 2019, published 2024)

Legend:
[1] = tested on: Y. lipolytica strain ST8881; type: cell-based, Yarrowia lipolytica; conditions: antifoaming agent 3 v/v %
Description: Strain ST8327 has been engineered to produce (Z)11-hexadecen-1-ol. […] The strain expresses the Δ11 desaturase from Amyelois transitella (SEQ ID NO: 1) and fatty acyl-CoA reductase from Helicoverpa armigera (SEQ ID NO: 5). Strain ST8762 has been engineered to produce (Z)9-tetradecen-1-ol. The strain expresses the Δ9 desaturase from Drosophila melanogaster (SEQ ID NO: 16) and fatty acyl-CoA reductase from Helicoverpa armigera (SEQ ID NO: 5). […] A strain was inoculated from a YPD agar plate (10 g/L yeast extract, 10 g/L peptone, 20 g/L glucose, 15 g/L agar agar) to an initial OD600 of 0.1-0.2 into 2.5 mL YPG medium (10 g/L yeast extract, 10 g/L peptone, 40 g/L glycerol) in 24 well-plate (EnzyScreen). The plate was incubated at 28° C. and 300 rpm for 22 hours. […] At the same time, 95 μL of Antifoam A (ethoxylated and propoxylated C16-18 alcohols, CAS No. 68002-96-0), corresponding to […] (i.e. above the recommended dose of 0.1 v/v % for foam management and above the cloud concentration), was added. The plate was incubated at 28° C. and 300 rpm for 28 hours. Each experiment was performed in biological triplicates.
The intracellular and extracellular concentrations of fatty alcohols were assessed as follows. 1000 μL of culture broth was transferred to a 4 mL gas-tight glass extraction vial. The sample was centrifuged at 3,500 g for 5 min at room temperature. The supernatant was transferred into a new glass vial with 990 μL of hexane and 10 μL of internal standard (IS) solution (20 mg/L of methyl Z10-heptadecanoate in ethyl acetate). The vial was vortexed for 10 s and centrifuged as before. 250 μL of the upper hexane phase was transferred to a GC vial for GC-MS analysis of the extracellular fatty alcohol concentration. The pellet remaining after the removal of the supernatant from the centrifuged culture broth was resuspended in 990 μL of solvent mixture (EtOAc and EtOH) and 10 μL of IS solution as above. The sample was incubated for 1 h with periodic mixing. 300 μL water was added and the vials were centrifuged at 3,500 g for 5 min at room temperature. 250 μL of the upper organic phase was transferred to a GC vial for GC-MS analysis of the intracellular fatty alcohols. GC-MS analyses were performed on an Agilent 7820A GC coupled to a mass selective detector Agilent 5977B. The GC was equipped with an DB Fatwax column (30 m×0.25 mm×0.25 μm), and helium was used as carrier gas. The MS was operated in electron impact mode (70 eV), scanning between m/z 30 and 400, and the injector was configured in split mode 20:1 at 220° C. Oven temperature was set to 80° C. for 1 min, then increased at a rate of 20° C./min to 210° C., followed by a hold at 210° C. for 7 min, and then increased at a rate of 20° C./min to 230° C. Compounds were identified by comparison of retention times and mass spectra of the reference compounds. Compounds were quantified by the ion 55.1 m/z. Data were analysed by the Agilent Masshunter software. The concentrations of fatty alcohols were calculated based on standard calibration curves prepared with reference standards.
Here we investigated the effect of different antifoaming oils and agents on the recovery of fatty alcohols in a separate phase. The experiments were performed with engineered Y. lipolytica strain ST8881 following the procedures as in Example 1.
The control experiment was performed without addition of any antifoaming oil or agent.

Chilo suppressalis = conditions: C. suppressalis, cited from earlier work
Helicoverpa armigera = conditions: H. armigera, cited from earlier work

Compound	% secretion of Z11.hexadecen-1-ol [1]	Extracellular concentration of Z11.hexadecen-1-ol [1]	Total concentration of Z11-hexadecen-1-ol [1] [mg/L]	Interaction with the two primary pheromone components Z11-16:Ald and Z13-18:Ald (Chilo suppressalis; Tatsuki et al.)	Effect on the activity of an artificial pheromone formulation when added to Z11-16:Ald (Helicoverpa armigera; Kehat et al., 1990)	Behavioral response (Chilo suppressalis)	Behavioral response (Helicoverpa armigera)
CCCCCCCCCCCC [Dodecane]	0 (0%)	0 (0%)	720.0 ± 95.6				
CCCCCCCC/C=C\CCCCCCCC(=O)O [Oleic acid]	0 (0%)	0 (0%)	1008.4 ± 648.6				
CCCCCC/C=C\CCCCCCCC=O [Z9-16:Ald]				synergistic	enhance the activity		
CCCCCCCCCCCCCCCC=O [16:Ald, n-Hexadecanal]						does not elicit a behavioral response	neutral
